BindingDB's records for doi:10.1021/jm011020u (Instituto De Quimica Medica (Csic), 2002)

target: T1, Glycogen synthase kinase-3 beta [7-25] (Oryctolagus cuniculus, UniProt G1T8E2); assay: GSK-3 Inhibition Assay; details: 37 °C
T1 construct: 7-25
Procedure: 32P incorporation was measured with a scintillation counter. The GSK-3 beta activity was expressed in picomoles of phosphate incorporated in GS-1 per 20 min or in percentage of maximal activity.

**Q.** Which IC50 does the source give for `O=c1sn(Cc2ccccc2)c(=S)n1Cc1ccccc1` [2,4-Dibenzyl-5-oxo-1,2,4-thiadiazolidine-3-thione] here?
**A.** 10 µM

**Q.** For `CCn1sc(=O)n(CC)c1=S` [2,4-diethyl-3-thioxo-1,2,4-thiadiazolidin-5-one], which IC50 is on record?
**A.** 20 µM

**Q.** `O=c1sn(-c2ccccc2)c(=S)n1-c1ccccc1` [2,4-diphenyl-5-oxo-1,2,4-thiadiazolidine-3-thione] was tested. Which IC50 did it give?
**A.** 8 µM

**Q.** Which IC50 does the source give for `CCn1sc(=N)n(-c2ccccc2)c1=O` [2-Ethyl-3-oxo-4-phenyl-1,2,4-thiadiazolidin-5-imine] here?
**A.** 65 µM

**Q.** With `Cn1sc(=O)n(-c2cccc3ccccc23)c1=O` [2-methyl-4-(1-naphthyl)-1,2,4-thiadiazolidine-3,5-dione] as the compound, how does the IC50 read?
**A.** 3 µM

**Q.** Which IC50 does the source give for `Cn1sc(=O)n(-c2ccc(C(F)(F)F)cc2)c1=O` [2-methyl-4-[4-(trifluoromethyl)phenyl]-1,2,4-thiadiazolidine-3,5-dione] here?
**A.** 6 µM

**Q.** Which IC50 does the source give for `Cn1sc(=O)n(-c2ccc(Cl)cc2)c1=O` [4-(4-Chlorophenyl)-2-methyl-1,2,4-thiadiazolidine-3,5-dione] here?
**A.** 4 µM

**Q.** Which IC50 does the source give for `Cn1sc(=O)n(-c2ccc(F)cc2)c1=O` [4-(4-Fluorophenyl)-2-methyl-1,2,4-thiadiazolidine-3,5-dione] here?
**A.** 4 µM

**Q.** Which IC50 does the source give for `Cc1ccc(-n2c(=O)sn(C)c2=O)cc1` [4-(4-Methylphenyl)-2-methyl-1,2,4-thiadiazolidine-3,5-dione] here?
**A.** 5 µM

**Q.** For `CCn1sc(=O)n(Cc2ccccc2)c1=S` [4-Benzyl-2-ethyl-5-oxo-1,2,4-thiadiazolidine-3-thione], which IC50 is on record?
**A.** 6 µM

**Q.** `CCn1c(=S)n(C)s/c1=N\c1cccnc1` [(5Z)-4-ethyl-2-methyl-5-(pyridin-3-ylimino)-1,2,4-thiadiazolidine-3-thione] was tested. Which IC50 did it give?
**A.** 10 µM

**Q.** For `CCOC(=O)/N=c1\sn(C(=O)OCC)c(=S)n1-c1ccccc1` [ethyl (5Z)-5-[(ethoxycarbonyl)imino]-4-phenyl-3-sulfanylidene-1,2,4-thiadiazolidine-2-carboxylate], which IC50 is on record?
**A.** 100 µM

**Q.** Which IC50 does the source give for `CCNC(=O)/N=c1\sn(CC)c(=O)n1-c1ccccc1` [ethyl-(2-ethyl-3-oxo-4-phenyl-1,2,4-thiadiazolidin-5-ylidene)urea] here?
**A.** 75 µM

same assay, conditions: pH 7.5; 37 °C

**Q.** How did the IC50 turn out when `CCn1sc(=O)n(Cc2ccccc2)c1=O` was run?
**A.** 7 µM

**Q.** `O=c1sn(Cc2ccccc2)c(=O)n1Cc1ccccc1` [2,4-Dibenzyl-1,2,4-thiadiazolidine-3,5-dione] was tested. Which IC50 did it give?
**A.** 10 µM

**Q.** Which IC50 does the source give for `CCn1sc(=O)n(CC)c1=O` [2,4-Diethyl-1,2,4-thiadiazolidine-3,5-dione] here?
**A.** 25 µM

**Q.** How did the IC50 turn out when `CCn1c(=O)sn(C2CCCCC2)c1=O` [2-Cyclohexyl-4-ethyl-1,2,4-thiadiazolidine-3,5-dione] was run?
**A.** 10 µM

**Q.** With `Cn1sc(=O)n(-c2ccccc2)c1=O` [2-methyl-4-phenyl-1,2,4-thiadiazolidine-3,5-dione] as the compound, how does the IC50 read?
**A.** 2 µM

**Q.** For `Cn1sc(=O)n(-c2ccccc2Br)c1=O` [4-(2-Bromophenyl)-2-methyl-1,2,4-thiadiazolidine-3,5-dione], which IC50 is on record?
**A.** 6 µM

**Q.** Which IC50 does the source give for `Cn1sc(=O)n(-c2cccc(Br)c2)c1=O` [4-(3-Bromophenyl)-2-methyl-1,2,4-thiadiazolidine-3,5-dione] here?
**A.** 4 µM

**Q.** With `Cn1sc(=O)n(-c2ccc(Br)cc2)c1=O` [4-(4-Bromophenyl)-2-methyl-1,2,4-thiadiazolidine-3,5-dione] as the compound, how does the IC50 read?
**A.** 3 µM

**Q.** `Cn1sc(=O)n(C2CCCCC2)c1=O` [4-Cyclohexyl-2-methyl-1,2,4-thiadiazolidine-3,5-dione] was tested. Which IC50 did it give?
**A.** > 100 µM

**Q.** `CCn1c(=O)sn(C)c1=O` [4-Ethyl-2-methyl-1,2,4-thiadiazolidine-3,5-dione] was tested. Which IC50 did it give?
**A.** 5 µM

**Q.** Which IC50 does the source give for `CCCn1sc(=O)n(CC)c1=O` [4-Ethyl-2-propyl-1,2,4-thiadiazolidine-3,5-dione] here?
**A.** 10 µM

**Q.** With `CCn1c(=O)sn(C(C)C)c1=O` [4-ethyl-2-(propan-2-yl)-1,2,4-thiadiazolidine-3,5-dione] as the compound, how does the IC50 read?
**A.** 35 µM

target: cAMP-dependent protein kinase catalytic subunit alpha (Bos taurus, UniProt P00517); assay: Kinase Inhibition Assay; details: pH 7.5; 37 °C

**Q.** For `Cn1sc(=O)n(Cc2ccccc2)c1=O` [4-Benzyl-2-methyl-1,2,4-thiadiazolidine-3,5-dione], which IC50 is on record?
**A.** > 100 µM

target: Protein kinase C beta type (Rattus norvegicus, UniProt P68403); assay: PKC Inhibition Assay; details: pH 7.5; 37 °C
Sequence (P68403 whole entry): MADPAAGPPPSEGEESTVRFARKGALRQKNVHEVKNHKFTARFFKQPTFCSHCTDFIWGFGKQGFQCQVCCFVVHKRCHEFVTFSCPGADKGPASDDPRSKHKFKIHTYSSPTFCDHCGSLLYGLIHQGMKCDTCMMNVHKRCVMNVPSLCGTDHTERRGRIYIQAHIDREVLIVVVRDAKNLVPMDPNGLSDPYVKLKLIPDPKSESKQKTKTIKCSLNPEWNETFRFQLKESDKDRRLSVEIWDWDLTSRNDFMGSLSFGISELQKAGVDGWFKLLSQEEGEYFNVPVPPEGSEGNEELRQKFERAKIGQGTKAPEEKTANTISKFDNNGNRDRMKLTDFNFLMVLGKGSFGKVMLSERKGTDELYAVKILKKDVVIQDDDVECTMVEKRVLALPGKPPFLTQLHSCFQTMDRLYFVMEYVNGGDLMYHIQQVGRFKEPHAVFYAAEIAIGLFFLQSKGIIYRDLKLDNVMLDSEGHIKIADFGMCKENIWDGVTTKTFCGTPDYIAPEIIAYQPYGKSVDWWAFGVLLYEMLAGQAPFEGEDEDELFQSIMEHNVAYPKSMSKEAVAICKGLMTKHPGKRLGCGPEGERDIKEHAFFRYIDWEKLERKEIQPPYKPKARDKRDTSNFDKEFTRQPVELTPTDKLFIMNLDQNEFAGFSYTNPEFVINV
Procedure: Kinase activities were assayed in buffers containing substrate, enzyme, and inhibitor at 37 °C in the presence of 10 uM ATP/ [gamma-32P] ATP. 32P incorporation was measured with a scintillation counter. The IC50 is the inhibitor concentration at which a 50% of enzyme inhibition occurs.

**Q.** How did the IC50 turn out when `Cn1sc(=O)n(Cc2ccccc2)c1=O` [4-Benzyl-2-methyl-1,2,4-thiadiazolidine-3,5-dione] was run?
**A.** > 100 µM
